The results in this text go back to paper PMC9822553 (iScience, 2023).

One data set concerns SARS-CoV-2 Omicron. Type of data set: cell-based.
In a further data set the test system is SARS-CoV-2 Delta. Type of data set: cell-based.

As to `Cc1cc(C)nc(NC(=S)N2CCN(Cc3ccc(C(F)(F)F)cc3)CC2)c1` [NCT-503], in the data set on SARS-CoV-2 Omicron, the “inhibition of Omicron-induced caspase 3/7 activation” value is listed as “inhibited”. Further, in the data set with SARS-CoV-2 Delta, the “effect on SARS-CoV-2 replication in ALI HBE cultures” value is listed as “inhibited SARS-CoV-2 replication”.
Turning to `CCN(CCO)CCCC(C)Nc1ccnc2cc(Cl)ccc12` (stereo not shown) [hydroxychloroquine], the drug-induced phospholipidosis result with Vero cells and with A549-ACE2 cells was “considerable phospholipidosis” throughout.
